# Patent publication US20240366629A1, “Porphyrin Complexes as Antidotes for Carbon Monoxide Exposure and Methods of Use for Same” (priority 2021, published 2024)
# How the values were obtained:
# [1] = Solubility in water and methanol
# CO-treated RBCs = assay: Time-course CO removal from CO-treated RBCs (absorbance at 420 nm); assay type: cell-based, bovine; settings: quiescent suspension of CO-poisoned RBCs in buffered dithionite solution, 1 equiv of 6 (reduced in situ to 7)
# Description: Time-Course CO Removal From CO-Treated RBCs Defibrinated bovine blood (Hemostat Laboratories) was diluted with PBS containing 5.7 mM sodium dithionite. CO was bubbled through this suspension for 5 s. This mixture was centrifuged for 30 s at 760×g. The supernatant was discarded, and the pellet was washed with PBS containing 5.7 mM sodium dithionite. This washing was repeated three more times to remove excess CO. An aliquot of the stock suspension of CO-treated RBCs was added to a quartz cuvette containing 1 mL of DI water to lyse the cells. The concentration of COHb was assessed by measuring the absorbance at 420 nm (ε=10^5.63) of this lysate. For time-course CO removal, an aliquot of the stock suspension of CO-treated RBCs was diluted to 1 mL with PBS containing 5.7 mM sodium dithionite. A full equivalent of compound 6 (which is reduced in situ to 7) was added, the suspension was rapidly mixed, and absorbance at 420 nm was monitored continuously (FIG. 12).
Molecule,solubility in water and methanol [1],time to essentially complete reaction (decrease of COHb absorbance at 420 nm) (CO-treated RBCs)
"5,10,15,20-tetrakis(2,6-di(3,5-difluoro)phenyl-4-(trimethylsilyl) phenyl) porphyrin [Compound 2-2b]",completely insoluble,–
"Sodium 5,10,15,20-tetrakis(2,6-diphenyl-4-(sulfonate)phenyl)porphyrinatohydroxoiron(III) [Compound 6]",–,≤ 3 min
"O=S(=O)([O-])c1cc(-c2ccccc2)c(-c2c3nc(c(-c4c(-c5ccccc5)cc(S(=O)(=O)[O-])cc4-c4ccccc4)c4ccc([nH]4)c(-c4c(-c5ccccc5)cc(S(=O)(=O)[O-])cc4-c4ccccc4)c4nc(c(-c5c(-c6ccccc6)cc(S(=O)(=O)[O-])cc5-c5ccccc5)c5ccc2[nH]5)C=C4)C=C3)c(-c2ccccc2)c1.[Na+].[Na+].[Na+].[Na+] [Compound 2-3a, sodium 5,10,15,20-tetrakis(2,6-diphenyl-4-(sulfonato)phenyl)porphyrin]",readily dissolved,–
"O=S(=O)([O-])c1cc(-c2cc(F)cc(F)c2)c(-c2c3nc(c(-c4c(-c5cc(F)cc(F)c5)cc(S(=O)(=O)[O-])cc4-c4cc(F)cc(F)c4)c4ccc([nH]4)c(-c4c(-c5cc(F)cc(F)c5)cc(S(=O)(=O)[O-])cc4-c4cc(F)cc(F)c4)c4nc(c(-c5c(-c6cc(F)cc(F)c6)cc(S(=O)(=O)[O-])cc5-c5cc(F)cc(F)c5)c5ccc2[nH]5)C=C4)C=C3)c(-c2cc(F)cc(F)c2)c1.[Na+].[Na+].[Na+].[Na+] [Compound 2-3b, sodium 5,10,15,20-tetrakis(2,6-di(3,5-difluoro)phenyl-4-(sulfonato)phenyl)porphyrin]",readily dissolved,–
"C[Si](C)(C)c1cc(-c2ccccc2)c(-c2c3nc(c(-c4c(-c5ccccc5)cc([Si](C)(C)C)cc4-c4ccccc4)c4ccc([nH]4)c(-c4c(-c5ccccc5)cc([Si](C)(C)C)cc4-c4ccccc4)c4nc(c(-c5c(-c6ccccc6)cc([Si](C)(C)C)cc5-c5ccccc5)c5ccc2[nH]5)C=C4)C=C3)c(-c2ccccc2)c1 [Compound 2-2a, 5,10,15,20-tetrakis(2,6-diphenyl-4-(trimethylsilyl)phenyl) porphyrin]",completely insoluble,–
